Measured values taken from ChEMBL document CHEMBL4613303, “New Dihydrothiazole Benzensulfonamides: Looking for Selectivity toward Carbonic Anhydrase Isoforms I, II, IX, and XII” (ACS Med Chem Lett, 2020).

Molecular target: Carbonic anhydrase 9 (Homo sapiens, UniProt Q16790)
Assay: Inhibition of recombinant human carbonic anhydrase 9 incubated for 6 hrs prior to testing measured for 10 to 100 secs by phenol red-based stopped-flow CO2 hydration assay

Row | SMILES | Ki [µM]
1 | CCn1c(-c2ccc(Br)cc2)cs/c1=N/c1ccc(S(N)(=O)=O)cc1 | 3.39
2 | CCn1c(-c2ccc(C#N)cc2)cs/c1=N/c1ccc(S(N)(=O)=O)cc1 | 4.33
3 | CCn1c(-c2cccc([N+](=O)[O-])c2)cs/c1=N/c1ccc(S(N)(=O)=O)cc1 | 0.214
4 | CCn1c(-c2ccc([N+](=O)[O-])cc2)cs/c1=N/c1ccc(S(N)(=O)=O)cc1 | 4.32
5 | CCn1c(-c2ccc(C)cc2)cs/c1=N/c1ccc(S(N)(=O)=O)cc1 | 0.358
6 | CCn1c(-c2ccccc2)cs/c1=N/c1ccc(S(N)(=O)=O)cc1 | 0.248
7 | CCn1c(-c2ccc(Cl)cc2)cs/c1=N/c1ccc(S(N)(=O)=O)cc1 | 0.109
8 | CCn1c(-c2cccs2)cs/c1=N/c1ccc(S(N)(=O)=O)cc1 | 0.297
9 | CCn1c(-c2ccc(F)cc2F)cs/c1=N/c1ccc(S(N)(=O)=O)cc1 | 0.144
10 | CCn1c(-c2ccc(-c3ccccc3)cc2)cs/c1=N/c1ccc(S(N)(=O)=O)cc1 | 4.31
11 | CCn1c(-c2ccc(F)cc2)cs/c1=N/c1ccc(S(N)(=O)=O)cc1 | 3.93
12 | CCn1c(-c2ccc(OC)cc2)cs/c1=N/c1ccc(S(N)(=O)=O)cc1 | 0.205
13 | CCn1c(-c2ccc(Cl)cc2Cl)cs/c1=N/c1ccc(S(N)(=O)=O)cc1 | 0.225
